From patent EP2070527A1, “Inhibitors of fungal biofilm-formation” (QuoNova Europe GmbH, priority 2007, dated 2009)

Test system: Candida paratropicalis
Experiment: MBEC assay (biofilm inhibition)
Type: cell-based
Settings: biofilm grown 24 hours at 37±2°C on pegs, logR = log reduction; for log reduction at 100 µM: test compound 100 µm (so in the source); for log reduction at 10 µM: test compound 10 µM
Procedure: TEST METHOD: MBEC™ Assay The compound to be tested was dissolved in DMSO to obtain a concentration that was 100 times that of the final concentration required (1mM for the 10µM assay and 10mM for the 100µM assay). 1.5 µL of the above solution was placed into each well of a 96 well plate (final volume in each well = 150 µL, final DMSO concentration of 1% (v/v)). To grow the organism and form a biofilm, a cryogenic stock of Candida paratropicalis (at - 70°C) was used. A first sub-culture was streaked out onto TSA (tryptic soy agar), upon which the plate was incubated at 37±2°C for 24 hours and stored wrapped in parafilm at 4 °C afterwards. From this first sub-culture, a second sub-culture was streaked out onto TSA. The plate was incubated at 37±2°C for 24 hours. The second sub-culture was used within 24 hours starting from the time it was first removed from incubation. Using the second sub-culture an inoculum in 3 mL sterile water that matches a 0.5 McFarland Standard (1.5 x 10^8 cells per mL) was created in a glass test tube using a sterile cotton swab. […] of this solution was diluted in 22mL TSB (tryptic soy broth) medium to a cell density of approximately 6.0 x 10^5 cells per mL. The diluted organism was inverted 3-5 times to achieve uniform mixing of the organism. One sample (100µl) of the diluted organism was used for an inoculum check by serially diluting and spot plating on TSA. To prepare a challenge plate, 20 µl of the diluted organism was added to each well of a 96 well plate except the sterility control wells. The test compounds were added to the wells to make up final concentrations of 10 µM and 100 µM (1.5 µL /well) in the designated location in the test plate. 128.5 µL of TSB was placed in each of the wells. 130 µL of media was added to the growth control wells. 128.5 µL of media+ 1.5 µL of DMSO were added to a second set of growth control wells. 150 µL of media was added to the sterility controls. Each sample was run in triplicate. The plate was covered by a lid with a peg per well and wrapped in parafilm and placed on a shaker in a humidified incubator (GeneVac) at 37±2°C for 24 hours set at 110 rpm. Rinse plate(s) of 0.9% saline (200 µL per well) were prepared in a sterile 96 well microtitre plate. Lid-associated pegs were rinsed in 0.9% saline for approximately 1-2 minutes. The peg lid was transferred to the recovery media (1.0% Tween 80 in CAMHB) then sonicated for 30 minutes to dislodge surviving biofilm. Following sonication, 100 µl from each well of the 96 well plate was placed into the first 12 wells of the first row of a 96 well microtiter plate. 180 µl of 0.9% sterile saline was placed in the remaining rows. A serial dilution (10^0-10^-7) was prepared by moving 20 µl down each of the 8 rows. 20µl from each well was removed and spot plated on a prepared TSA. In the remaining recovery plate, 100 µl of fresh growth media (1.0% Tween 80 in CAMHB) was placed in each well to replace the amount removed. The recovery plate was covered with a regular lid and incubated at 37±2°C for 24 hours and read visually to confirm antimicrobial activity of the test compounds. The following compounds have been tested regarding their efficiency (logR = log reduction) against Candida paratropicalis: […]

## CCCCCCCCCC(=O)CC(=O)N1CCC(N(C)C)C1 (centres unmarked) [Example 6]
  log reduction at 100 µM: 3.87

## CCCCCCCCCC(=O)CC(=O)Nc1ccno1 [Example 3]
  log reduction at 10 µM: 1.26
  log reduction at 100 µM: 1.1

## CCCCCCC(=O)CC(=O)Nc1ccno1 [Example 2]
  log reduction at 10 µM: 1.12
  log reduction at 100 µM: 0.65

## CCCCCCCCCC(=O)CC(=O)N1CCN(C)CC1 [Example 5]
  log reduction at 100 µM: 2.83

## CCCCCCCCCC(=O)CC(=O)N(C)c1ccc(F)cc1 [Example 1]
  log reduction at 100 µM: 0.62

## CCCCCCCCCC(=O)CC(=O)Nc1nc(C)co1 [Example 4]
  log reduction at 100 µM: 1.71
